The values below come from patent US20250263753A1, “BRIDGED CYCLE-BASED INHIBITORS OF DNA-DEPENDENT PROTEIN KINASE AND COMPOSITIONS AND APPLICATION IN GENE EDITING” (Juno Therapeutics, Inc., priority 2023, published 2025).

As a reminder, the IC50 is the concentration that inhibits the measured activity by half.

Where two headings read alike, the source gives them in different places. Bounds are passed on as bounds.

The target in one assay is DNA-PK (Homo sapiens (Human), UniProt P78527). Description: DNA-PK biochemical assay (Reaction Biology HotSpot kinase assay, 10 μM ATP). The procedure: DNA-PK Biochemical Assay Using Reaction Biology's HotSpot Kinase Assay Protocol:
Reagent: Base Reaction buffer; 20 mM Hepes (pH 7.5), 10 mM MgCl2, 1 mM EGTA, 0.01% Brij35, 0.02 mg/ml BSA, 0.1 mM Na3VO4, 2 mM DTT, 1% DMSO Required cofactors are added individually to each kinase reaction.
Reaction Procedure: 1. Prepare substrate in freshly prepared Reaction Buffer; 2. Deliver any required cofactors to the substrate solution above; 3. Deliver kinase into the substrate solution and gently mix; 4. Deliver compounds in 100% DMSO into the kinase reaction mixture by Acoustic technology (Echo550; nanoliter range), incubate for 20 min at room temperature; 5. Deliver 33P-ATP into the reaction mixture to initiate the reaction; 6. Incubate for 2 hours at room temperature; 7. Detect kinase activity by P81 filter-binding method.

For a further assay, the target named is ATM (Homo sapiens (Human), UniProt Q13315). The assay can be described thus: ATM biochemical assay (Reaction Biology HTRF kinase assay, 10 μM ATP). The conditions noted are these: class symbol. The procedure:
Ataxia-Telangiectasia Mutated (ATM) Biochemical Assay Using Reaction Biology's HTRF Kinase Assay Protocol:
The assay detects kinase activity by antibody based HTRF assay. The GST-tagged p53 protein serves as substrate and Eu-labeled-antibody with specific phosphorylation site binds upon phosphorylation which is monitored by HTRF from the anti-GST-d2.
Reagent: Reaction buffer; 50 mM Hepes (pH 7.5), 150 mM NaCl, 10 mM MnCl2, 1% Glycerol, 0.01% Brij35, 1 mM DTT, 1% DMSO.
Substrate: Human p53 (aa2-393), RBC produced in E. coli, N-terminal GST-Tag, MW=70.42 kDa.
Detection; MAb Anti-p53-pS15-Eu cryptate, CisBio cat #61P08KAZ; MAb Anti GST-d2
Reaction Procedure: 1. Deliver 2× Enzyme in wells of reaction plate except No E control wells. Add buffer instead; 2. Deliver compounds in 100% DMSO into the kinase reaction mixture by Acoustic technology (Echo550; nanoliter range), incubate for 30 min at room temperature; 3. Deliver 2× substrate+ATP mixture into the reaction mixture to initiate the reaction; 4. Incubate for 2 hours at room temperature.
HTRF Detection: 1. Deliver 2× Stop/Detection mixture and incubate for 2 hours to overnight in the dark. 2. HTRF measurement (Ex/Em1/Em2=320/615/665 nm) in EnVision.
For orientation: In TR-FRET formats the signal depends on donor and acceptor labels being close together.

The target in assay [1] is PI3Kδ (His-PIK3CD/PIK3R1, p110 delta/p85 alpha) (Homo sapiens (Human), UniProt O00329). Description: PI3Kδ biochemical assay (HTRF/FRET probe). Type of assay: binding. The conditions noted are these: class symbol. The procedure:
Phosphoinositide 3-kinase (PI3K) Biochemical Assay: A solution was prepared containing 0.2 nM Anti-HIS-Terbium (Cisbio, 64CUSTAZU), 40 nM designed-probe and 1.0 nM His-PIK3CD/PIK3R1 (p110 delta/p85 alpha) in FRET Buffer (20 mM HEPES, 10 mM MgCl2, 0.015% Brij-35, 4 mM DTT, 0.05 mg/mL BSA).

The target of assay [2] is PI3Kα (His-PIK3CA/PIK3R1, p110 alpha/p85 alpha) (Homo sapiens (Human), UniProt P42336). Description: PI3Kα biochemical assay (HTRF/FRET probe). The format is binding. The settings on record: class symbol. The procedure: Phosphoinositide 3-kinase α (PI3Kα) Biochemical Assay: A solution was prepared containing 0.2 nM Anti-HIS-Terbium (Cisbio, 64CUSTAZU), 3.7 nM designed-probe and 1.0 nM His-PIK3CA/PIK3R1 (p110 alpha/p85 alpha) in FRET Buffer (20 mM HEPES, 10 mM MgCl2, 0.015% Brij-35, 4 mM DTT, 0.05 mg/mL BSA).

Setting [3] is: read-out: DNA-PK HotSpot 10 μM ATP IC50, class symbol.

Sequence of ATM (Q13315 whole entry): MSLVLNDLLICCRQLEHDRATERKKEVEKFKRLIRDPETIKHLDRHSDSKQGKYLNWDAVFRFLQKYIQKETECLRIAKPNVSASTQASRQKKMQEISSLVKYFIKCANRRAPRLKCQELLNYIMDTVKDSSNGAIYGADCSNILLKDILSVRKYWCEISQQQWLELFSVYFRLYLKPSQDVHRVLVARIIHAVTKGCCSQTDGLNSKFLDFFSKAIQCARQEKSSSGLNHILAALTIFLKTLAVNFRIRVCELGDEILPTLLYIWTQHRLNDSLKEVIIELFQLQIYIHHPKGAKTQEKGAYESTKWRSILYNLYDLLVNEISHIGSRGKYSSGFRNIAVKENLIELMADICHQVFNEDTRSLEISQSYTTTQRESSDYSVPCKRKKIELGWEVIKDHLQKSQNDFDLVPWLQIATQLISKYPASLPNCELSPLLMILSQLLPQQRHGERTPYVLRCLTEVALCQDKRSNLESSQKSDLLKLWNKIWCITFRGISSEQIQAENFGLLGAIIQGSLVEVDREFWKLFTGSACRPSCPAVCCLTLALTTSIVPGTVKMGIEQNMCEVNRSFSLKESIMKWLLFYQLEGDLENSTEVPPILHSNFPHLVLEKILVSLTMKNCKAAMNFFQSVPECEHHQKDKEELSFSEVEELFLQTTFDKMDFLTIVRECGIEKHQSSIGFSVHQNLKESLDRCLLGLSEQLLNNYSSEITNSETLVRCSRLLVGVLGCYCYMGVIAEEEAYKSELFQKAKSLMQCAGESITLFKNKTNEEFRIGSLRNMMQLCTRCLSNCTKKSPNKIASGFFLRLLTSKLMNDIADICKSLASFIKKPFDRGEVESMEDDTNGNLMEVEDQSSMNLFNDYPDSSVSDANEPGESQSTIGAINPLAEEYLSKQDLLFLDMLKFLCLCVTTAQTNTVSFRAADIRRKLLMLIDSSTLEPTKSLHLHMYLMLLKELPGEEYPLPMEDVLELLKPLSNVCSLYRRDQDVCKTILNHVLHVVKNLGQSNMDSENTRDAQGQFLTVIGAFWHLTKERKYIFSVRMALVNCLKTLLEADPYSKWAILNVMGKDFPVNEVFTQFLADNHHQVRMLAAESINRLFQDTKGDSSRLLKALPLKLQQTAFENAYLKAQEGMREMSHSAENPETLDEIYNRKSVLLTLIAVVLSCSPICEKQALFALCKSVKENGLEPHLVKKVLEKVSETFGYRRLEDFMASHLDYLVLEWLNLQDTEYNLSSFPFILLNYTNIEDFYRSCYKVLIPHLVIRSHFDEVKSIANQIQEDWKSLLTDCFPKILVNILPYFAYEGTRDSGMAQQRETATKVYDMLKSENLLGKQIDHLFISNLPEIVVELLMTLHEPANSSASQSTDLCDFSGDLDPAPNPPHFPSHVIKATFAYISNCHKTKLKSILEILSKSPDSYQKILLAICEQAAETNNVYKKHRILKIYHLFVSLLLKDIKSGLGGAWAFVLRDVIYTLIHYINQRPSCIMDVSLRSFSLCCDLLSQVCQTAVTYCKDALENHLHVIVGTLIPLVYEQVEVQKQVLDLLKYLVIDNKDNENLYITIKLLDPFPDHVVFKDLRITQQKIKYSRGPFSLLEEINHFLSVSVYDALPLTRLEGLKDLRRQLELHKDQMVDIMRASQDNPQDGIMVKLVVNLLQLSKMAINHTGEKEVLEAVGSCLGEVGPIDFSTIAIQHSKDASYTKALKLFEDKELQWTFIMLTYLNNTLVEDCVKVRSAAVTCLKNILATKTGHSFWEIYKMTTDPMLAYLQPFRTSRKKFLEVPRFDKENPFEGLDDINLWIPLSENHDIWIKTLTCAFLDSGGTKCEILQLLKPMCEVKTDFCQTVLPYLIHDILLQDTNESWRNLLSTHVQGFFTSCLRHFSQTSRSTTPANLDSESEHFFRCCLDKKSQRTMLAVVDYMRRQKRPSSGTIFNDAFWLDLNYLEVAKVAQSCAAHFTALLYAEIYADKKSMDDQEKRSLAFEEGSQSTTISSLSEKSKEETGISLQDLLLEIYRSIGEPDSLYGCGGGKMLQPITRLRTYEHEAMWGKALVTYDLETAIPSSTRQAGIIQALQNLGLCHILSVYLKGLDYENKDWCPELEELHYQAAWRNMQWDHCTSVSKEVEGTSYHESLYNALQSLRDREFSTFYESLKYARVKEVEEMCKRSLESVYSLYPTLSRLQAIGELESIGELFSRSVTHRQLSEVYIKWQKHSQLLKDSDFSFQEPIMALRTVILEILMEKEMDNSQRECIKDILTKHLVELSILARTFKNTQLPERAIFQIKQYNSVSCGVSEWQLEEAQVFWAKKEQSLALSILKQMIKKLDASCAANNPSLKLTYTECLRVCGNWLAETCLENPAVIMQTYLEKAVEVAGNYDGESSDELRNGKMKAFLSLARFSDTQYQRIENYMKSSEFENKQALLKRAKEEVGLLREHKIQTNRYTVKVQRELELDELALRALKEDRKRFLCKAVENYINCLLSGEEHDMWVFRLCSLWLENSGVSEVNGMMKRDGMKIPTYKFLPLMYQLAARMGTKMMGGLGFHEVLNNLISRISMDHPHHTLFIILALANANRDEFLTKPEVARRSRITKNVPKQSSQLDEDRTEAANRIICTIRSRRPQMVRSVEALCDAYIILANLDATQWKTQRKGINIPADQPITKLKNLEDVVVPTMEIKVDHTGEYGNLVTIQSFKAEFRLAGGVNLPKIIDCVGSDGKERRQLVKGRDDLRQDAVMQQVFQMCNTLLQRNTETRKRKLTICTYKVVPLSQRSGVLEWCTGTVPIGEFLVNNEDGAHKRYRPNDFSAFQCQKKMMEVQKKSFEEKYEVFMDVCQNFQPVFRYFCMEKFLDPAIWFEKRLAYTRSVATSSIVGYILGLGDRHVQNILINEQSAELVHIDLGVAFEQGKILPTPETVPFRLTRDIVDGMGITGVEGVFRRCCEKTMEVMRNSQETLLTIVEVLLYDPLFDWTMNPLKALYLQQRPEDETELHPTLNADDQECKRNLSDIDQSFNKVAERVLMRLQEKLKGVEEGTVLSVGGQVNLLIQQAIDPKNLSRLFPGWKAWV
Sequence of PI3Kδ (His-PIK3CD/PIK3R1, p110 delta/p85 alpha) (O00329 whole entry, species assumed): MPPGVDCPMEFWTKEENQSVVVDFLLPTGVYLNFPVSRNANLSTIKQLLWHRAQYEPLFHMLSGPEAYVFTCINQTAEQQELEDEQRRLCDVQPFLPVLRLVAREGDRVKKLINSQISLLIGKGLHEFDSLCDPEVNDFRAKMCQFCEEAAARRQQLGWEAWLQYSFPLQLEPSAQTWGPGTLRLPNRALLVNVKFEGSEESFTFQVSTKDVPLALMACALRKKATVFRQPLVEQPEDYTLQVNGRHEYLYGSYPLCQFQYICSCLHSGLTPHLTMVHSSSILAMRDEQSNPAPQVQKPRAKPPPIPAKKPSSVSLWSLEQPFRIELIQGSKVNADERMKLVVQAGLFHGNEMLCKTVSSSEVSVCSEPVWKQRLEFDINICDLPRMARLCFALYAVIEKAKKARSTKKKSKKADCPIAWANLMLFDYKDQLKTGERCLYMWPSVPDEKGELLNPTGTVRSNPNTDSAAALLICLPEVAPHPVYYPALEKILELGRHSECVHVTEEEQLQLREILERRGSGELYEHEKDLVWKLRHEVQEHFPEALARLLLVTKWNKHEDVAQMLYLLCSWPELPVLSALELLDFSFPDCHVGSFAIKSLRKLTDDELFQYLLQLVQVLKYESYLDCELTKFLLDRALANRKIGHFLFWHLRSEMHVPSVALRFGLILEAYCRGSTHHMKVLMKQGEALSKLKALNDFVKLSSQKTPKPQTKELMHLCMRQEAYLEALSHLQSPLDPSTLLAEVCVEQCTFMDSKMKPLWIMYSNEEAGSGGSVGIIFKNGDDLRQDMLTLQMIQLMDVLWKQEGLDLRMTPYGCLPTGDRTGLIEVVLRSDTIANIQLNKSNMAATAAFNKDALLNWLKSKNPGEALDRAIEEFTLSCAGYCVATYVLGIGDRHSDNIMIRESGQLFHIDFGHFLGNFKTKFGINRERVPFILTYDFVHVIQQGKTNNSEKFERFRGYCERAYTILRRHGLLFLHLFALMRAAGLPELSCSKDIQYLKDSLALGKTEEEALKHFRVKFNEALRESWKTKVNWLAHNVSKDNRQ
Sequence of PI3Kδ (His-PIK3CD/PIK3R1, p110 delta/p85 alpha) (P27986 whole entry partner, species assumed): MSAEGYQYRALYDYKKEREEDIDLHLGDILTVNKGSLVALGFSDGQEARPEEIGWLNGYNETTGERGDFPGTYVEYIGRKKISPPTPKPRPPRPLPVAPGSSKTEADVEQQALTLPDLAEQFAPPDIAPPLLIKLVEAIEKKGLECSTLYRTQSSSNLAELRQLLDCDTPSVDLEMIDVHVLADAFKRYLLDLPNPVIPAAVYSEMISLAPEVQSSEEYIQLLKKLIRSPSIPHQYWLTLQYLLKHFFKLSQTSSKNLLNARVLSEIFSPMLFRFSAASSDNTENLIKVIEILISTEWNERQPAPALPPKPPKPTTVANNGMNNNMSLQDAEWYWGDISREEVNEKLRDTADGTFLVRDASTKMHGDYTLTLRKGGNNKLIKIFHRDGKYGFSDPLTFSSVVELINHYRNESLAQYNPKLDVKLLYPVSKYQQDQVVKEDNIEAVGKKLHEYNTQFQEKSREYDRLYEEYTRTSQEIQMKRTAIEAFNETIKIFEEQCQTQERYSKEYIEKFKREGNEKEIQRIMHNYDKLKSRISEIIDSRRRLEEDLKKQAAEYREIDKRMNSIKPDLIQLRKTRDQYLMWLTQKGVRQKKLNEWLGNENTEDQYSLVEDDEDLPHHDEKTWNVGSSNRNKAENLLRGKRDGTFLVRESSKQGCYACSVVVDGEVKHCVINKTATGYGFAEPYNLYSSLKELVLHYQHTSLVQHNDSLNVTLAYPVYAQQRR

As for `COC12CCC(n3c(=O)n(C)c4cnc(Nc5cc6nsnc6cc5C)nc43)(CC1)C2` [Compound 8, 9-(4-methoxybicyclo[2.2.1]heptan-1-yl)-7-methyl-2-((6-methylbenzo[c][1,2,5]thiadiazol-5-yl)amino)-7,9-dihydro-8H-purin-8-one], the half-inhibitory concentration (IC50) was < 1 nM on DNA-PK (setting [3]), 10 to 100 nM against ATM, 100 to 1000 nM in assay [1] and 10 to 100 nM in assay [2].

Take `COC12CCC(n3c(=O)n(C)c4cnc(Nc5cc6nccnc6cc5C)nc43)(CC1)C2` [Compound 9, 9-(4-methoxybicyclo[2.2.1]heptan-1-yl)-7-methyl-2-((7-methylquinoxalin-6-yl)amino)-7,9-dihydro-8H-purin-8-one]: the IC50 on DNA-PK (setting [3]) is < 1 nM; on ATM it was 10 to 100 nM; in assay [1] it was 100 to 1000 nM; in assay [2], 10 to 100 nM.

Take `COC12CCC(n3c(=O)n(C)c4cnc(Nc5cc6c(cc5C)OCCO6)nc43)(CC1)C2` [Compound 10, 9-(4-methoxybicyclo[2.2.1]heptan-1-yl)-7-methyl-2-((7-methyl-2,3-dihydrobenzo[b][1,4]dioxin-6-yl)amino)-7,9-dihydro-8H-purin-8-one]: the 50% inhibitory concentration (IC50) on DNA-PK (setting [3]) was < 1 nM; on ATM it was 100 to 1000 nM; in assay [1], ≥ 1000 nM; in assay [2], 10 to 100 nM.

Take `Cc1cc2nsnc2cc1Nc1ncc2c(n1)n(C13CC(F)(C1)C3)c(=O)n2C` [Compound 14, 9-(3-fluorobicyclo[1.1.1]pentan-1-yl)-7-methyl-2-((6-methylbenzo[c][1,2,5]thiadiazol-5-yl)amino)-7,9-dihydro-8H-purin-8-one]: the IC50 on DNA-PK (setting [3]) was < 1 nM; against ATM, 100 to 1000 nM; in assay [1] it was ≥ 1000 nM; in assay [2] it was 100 to 1000 nM.

Consider `Cc1cc2nccnc2cc1Nc1ncc2c(n1)n(C13CC(F)(C1)C3)c(=O)n2C` [Compound 15, 9-(3-fluorobicyclo[1.1.1]pentan-1-yl)-7-methyl-2-((7-methylquinoxalin-6-yl)amino)-7,9-dihydro-8H-purin-8-one], for which the IC50 is 1 to 10 nM on DNA-PK (class symbol), 100 to 1000 nM at ATM, ≥ 1000 nM in assay [1] and 100 to 1000 nM in assay [2].

Consider `Cc1cc2c(cc1Nc1ncc3c(n1)n(C14CC(F)(C1)C4)c(=O)n3C)OCCO2` [Compound 16, 9-(3-fluorobicyclo[1.1.1]pentan-1-yl)-7-methyl-2-((7-methyl-2,3-dihydrobenzo[b][1,4]dioxin-6-yl)amino)-7,9-dihydro-8H-purin-8-one], for which the IC50 is 10 to 100 nM against DNA-PK (class symbol), 100 to 1000 nM on ATM, ≥ 1000 nM in assay [1] and ≥ 1000 nM in assay [2].

`Cc1cc2c(cc1Nc1ncc3c(n1)n(C14CC(C#N)(C1)C4)c(=O)n3C)OCO2` [Compound 17, 3-(7-methyl-2-((6-methylbenzo[d][1,3]dioxol-5-yl)amino)-8-oxo-7,8-dihydro-9H-purin-9-yl) bicyclo[1.1.1]pentane-1-carbonitrile]: the half-maximal inhibitory concentration (IC50) on DNA-PK (class symbol) was 1 to 10 nM; at ATM, 100 to 1000 nM; in assay [1], ≥ 1000 nM; in assay [2] it was ≥ 1000 nM.

In the case of `Cc1cc2ncnn2cc1Nc1ncc2c(n1)n(C13CC(C(F)(F)F)(C1)C3)c(=O)n2C` [Compound 18, 7-methyl-2-((7-methyl-[1,2,4]triazolo[1,5-a]pyridin-6-yl)amino)-9-(3-(trifluoromethyl)bicyclo[1.1.1]pentan-1-yl)-7,9-dihydro-8H-purin-8-one], the IC50 on DNA-PK (class symbol) is 1 to 10 nM; at ATM it was 1 to 10 nM; in assay [1], ≥ 1000 nM; in assay [2], ≥ 1000 nM.

As to `Cc1cc2c(cc1Nc1ncc3c(n1)n(C14CC(C(F)(F)F)(C1)C4)c(=O)n3C)OCO2` [Compound 19, 7-methyl-2-((6-methylbenzo[d][1,3]dioxol-5-yl)amino)-9-(3-(trifluoromethyl)bicyclo[1.1.1]pentan-1-yl)-7,9-dihydro-8H-purin-8-one], the IC50 against DNA-PK (class symbol) was 1 to 10 nM; on ATM, 100 to 1000 nM; in assay [1], ≥ 1000 nM; in assay [2], ≥ 1000 nM.

With `COCC12CC(n3c(=O)n(C)c4cnc(Nc5cn6ncnc6cc5C)nc43)(C1)C2` [Compound 20, 9-(3-(methoxymethyl)bicyclo[1.1.1]pentan-1-yl)-7-methyl-2-((7-methyl-[1,2,4]triazolo[1,5-a]pyridin-6-yl)amino)-7,9-dihydro-8H-purin-8-one], the IC50 against DNA-PK (class symbol) is 1 to 10 nM; at ATM it was 1 to 10 nM; in assay [1] it was ≥ 1000 nM; in assay [2], 100 to 1000 nM.

For `COCC12CC(n3c(=O)n(C)c4cnc(Nc5cc6c(cc5C)OCO6)nc43)(C1)C2` [Compound 21, 9-(3-(methoxymethyl)bicyclo[1.1.1]pentan-1-yl)-7-methyl-2-((6-methylbenzo[d][1,3]dioxol-5-yl)amino)-7,9-dihydro-8H-purin-8-one], the IC50 at DNA-PK (class symbol) is 1 to 10 nM; at ATM, 10 to 100 nM; in assay [1], ≥ 1000 nM; in assay [2], ≥ 1000 nM.

Turning to `Cc1cc2ncnn2cc1Nc1ncc2c(n1)n(C13CC(CC#N)(C1)C3)c(=O)n2C` [Compound 22, 2-(3-(7-methyl-2-((7-methyl-[1,2,4]triazolo[1,5-a]pyridin-6-yl)amino)-8-oxo-7,8-dihydro-9H-purin-9-yl)bicyclo[1.1.1]pentan-1-yl)acetonitrile], the 50% inhibitory concentration (IC50) was 1 to 10 nM on DNA-PK (class symbol), 1 to 10 nM against ATM, ≥ 1000 nM in assay [1] and 100 to 1000 nM in assay [2].

On to `Cc1cc2c(cc1Nc1ncc3c(n1)n(C14CC(CC#N)(C1)C4)c(=O)n3C)OCO2` [Compound 23, 2-(3-(7-methyl-2-((6-methylbenzo[d][1,3]dioxol-5-yl)amino)-8-oxo-7,8-dihydro-9H-purin-9-yl)bicyclo[1.1.1]pentan-1-yl)acetonitrile], for which the IC50 against DNA-PK (class symbol) was 1 to 10 nM; on ATM, 10 to 100 nM; in assay [1], ≥ 1000 nM; in assay [2], 100 to 1000 nM.

In the case of `Cc1cc2c(cc1Nc1ncc3c(n1)n(C14CCC(C#N)(CC1)CC4)c(=O)n3C)OCO2` [Compound 24, 4-(7-methyl-2-((6-methylbenzo[d][1,3]dioxol-5-yl)amino)-8-oxo-7,8-dihydro-9H-purin-9-yl) bicyclo[2.2.2]octane-1-carbonitrile], the IC50 is < 1 nM at DNA-PK (setting [3]), 10 to 100 nM at ATM, ≥ 1000 nM in assay [1] and 100 to 1000 nM in assay [2].

On to `COC12CCC(n3c(=O)n(C)c4cnc(Nc5cn6ncnc6cc5C)nc43)(CC1)CC2` [Compound 25, 9-(4-methoxybicyclo[2.2.2]octan-1-yl)-7-methyl-2-((7-methyl-[1,2,4]triazolo[1,5-a]pyridin-6-yl)amino)-7,9-dihydro-8H-purin-8-one], for which the IC50 on DNA-PK (setting [3]) is < 1 nM; against ATM, 1 to 10 nM; in assay [1], 100 to 1000 nM; in assay [2], 100 to 1000 nM.

Take `COC12CCC(n3c(=O)n(C)c4cnc(Nc5cc6c(cc5C)OCO6)nc43)(CC1)CC2` [Compound 26, 9-(4-methoxybicyclo[2.2.2]octan-1-yl)-7-methyl-2-((6-methylbenzo[d][1,3]dioxol-5-yl)amino)-7,9-dihydro-8H-purin-8-one]: the half-maximal inhibitory concentration (IC50) at DNA-PK (setting [3]) was < 1 nM; at ATM, 10 to 100 nM; in assay [1], ≥ 1000 nM; in assay [2], 100 to 1000 nM.

As for `Cc1cc2c(cc1Nc1ncc3c(n1)n(C14CCC(O)(CC1)CC4)c(=O)n3C)OCO2` [Compound 27, 9-(4-hydroxybicyclo[2.2.2]octan-1-yl)-7-methyl-2-((6-methylbenzo[d][1,3]dioxol-5-yl)amino)-7,9-dihydro-8H-purin-8-one], the IC50 is < 1 nM at DNA-PK (setting [3]), 10 to 100 nM at ATM, ≥ 1000 nM in assay [1] and 10 to 100 nM in assay [2].
